Measurements: publication PMC4742234, “Screening of Drug Metabolizing Enzymes for the Ginsenoside Compound K In Vitro: An Efficient Anti-Cancer Substance Originating from Panax Ginseng” (PLoS ONE, 2016)
Values joined by “and” are separate entries in the source; they are usually repeats but may differ in a detail not shown here. Equal values may be shown once. “Also recorded” adds a separate entry of the source.

Key:
CYP2E1 = molecular target: T1, CYP2E1 (Homo sapiens, UniProt P05181); assay: Inhibition of CYP2E1 (chlorzoxazone 6-hydroxylation) by CK in HLMs; type: in vitro ADME
T1 construct: tissue Cypex Ltd. (U.K.); host or cells: pooled human liver microsomes
T1 sequence (P05181 whole entry): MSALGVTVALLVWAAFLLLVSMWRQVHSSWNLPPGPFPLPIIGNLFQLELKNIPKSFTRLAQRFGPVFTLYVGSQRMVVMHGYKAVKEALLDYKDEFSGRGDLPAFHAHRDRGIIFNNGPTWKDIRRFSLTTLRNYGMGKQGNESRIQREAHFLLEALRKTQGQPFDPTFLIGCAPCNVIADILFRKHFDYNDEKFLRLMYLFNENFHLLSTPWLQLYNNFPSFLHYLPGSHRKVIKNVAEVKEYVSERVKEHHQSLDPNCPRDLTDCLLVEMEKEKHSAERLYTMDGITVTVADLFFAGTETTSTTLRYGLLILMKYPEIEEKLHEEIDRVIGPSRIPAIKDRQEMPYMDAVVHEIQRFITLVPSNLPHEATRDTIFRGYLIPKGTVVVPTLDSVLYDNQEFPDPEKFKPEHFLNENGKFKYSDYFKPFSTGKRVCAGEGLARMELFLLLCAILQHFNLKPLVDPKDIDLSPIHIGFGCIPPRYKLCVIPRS
Experimental: (§1) The method was conducted according to our previous study with some modifications. The CYP isoform-specific probe reactions used were phenacetin O-deethylation (for CYP1A2), coumarin 7-hydroxylation (for CYP2A6), tolbutamide 4-hydroxylation (for CYP2C9), metoprolol α-hydroxylation (for CYP2D6), chlorzoxazone 6-hydroxylation (for CYP2E1),S-Mephenytoin 4-hydroxylation (for CYP2C19), and midazolam 1-hydroxylation (for CYP3A4). The kinetic study of CK was conducted with HLMs. A 0.2 mL incubation mixture that consisted of CK (as a substrate), the HLMs (0.5 mg/mL) or CYP isoforms (10 pmol), and 0.1 M sodium phosphate buffer (pH 7.4) was pre-warmed for 5 min at 37°C. The reaction was initiated by the addition of 1 mg/mL triphosphopyridine nucleotide (NADPH). All the reagents were dissolved in methanol, and the final solvent concentration in all incubations (including the controls) was 1%. The final incubations were performed in a shaking water bath (37°C) for 30 min. The reactions were stopped by adding 0.2 mL ice-cold acetonitrile, which contains irbesartan (114.9 ng/mL) as the internal standard. The samples were vortexed for 5 min. After centrifugation (12000×g for 10 min), the supernatants were transferred, and aliquots of 20 μL were injected into the HPLC-MS/MS system for analysis.
CK (10–100 μM) and a single CYP isoform-specific substrate (with a concentration similar to its corresponding Kmvalue) were used to determine the inhibitory effect of CK on specific CYP isoforms as described in detail previously. Substrates including phenacetin, coumarin, tolbutamide, metoprolol, chlorzoxazone, S-Mephenytoin, and midazolam were used at concentrations of 10, 5, 100, 7.5, 40, 100, and 5 μM, respectively. All incubation conditions were the same as mentioned above. The inhibitory effects on the CYP isoforms were investigated individually by incubating the HLMs in the absence or presence of CK. […]

CYP3A4 [1] = tested on: CYP3A4; design: method as in Hao et al.(2008); conditions: baculosomes, ref Hao et al.(2008); cited from earlier work
CYP3A4 [2] = molecular target: T2, CYP3A4 (Homo sapiens, UniProt P08684); assay: Effect of specific inhibitor ketoconazole on CK metabolism in HLMs; type: in vitro ADME; design: tissue Cypex Ltd. (U.K.); host or cells: pooled human liver microsomes; conditions: CK 50 μM, in the presence of ketoconazole 1 μM
T2 sequence (P08684 whole entry, canonical isoform): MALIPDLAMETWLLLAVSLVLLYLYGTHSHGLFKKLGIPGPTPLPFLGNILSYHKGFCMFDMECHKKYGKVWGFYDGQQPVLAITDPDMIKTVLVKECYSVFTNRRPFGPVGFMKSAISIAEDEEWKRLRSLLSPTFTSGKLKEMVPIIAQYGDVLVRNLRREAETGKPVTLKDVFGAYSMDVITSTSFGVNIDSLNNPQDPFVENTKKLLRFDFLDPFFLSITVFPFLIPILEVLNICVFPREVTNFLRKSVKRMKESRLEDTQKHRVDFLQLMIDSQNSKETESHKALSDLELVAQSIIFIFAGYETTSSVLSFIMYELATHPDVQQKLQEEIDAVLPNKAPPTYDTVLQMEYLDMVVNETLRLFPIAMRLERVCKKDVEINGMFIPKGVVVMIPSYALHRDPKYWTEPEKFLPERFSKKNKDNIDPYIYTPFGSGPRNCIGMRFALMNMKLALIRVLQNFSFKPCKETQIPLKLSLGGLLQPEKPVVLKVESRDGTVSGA
Experimental: The method was conducted according to our previous study with some modifications. The CYP isoform-specific probe reactions used were phenacetin O-deethylation (for CYP1A2), coumarin 7-hydroxylation (for CYP2A6), tolbutamide 4-hydroxylation (for CYP2C9), metoprolol α-hydroxylation (for CYP2D6), chlorzoxazone 6-hydroxylation (for CYP2E1),S-Mephenytoin 4-hydroxylation (for CYP2C19), and midazolam 1-hydroxylation (for CYP3A4). The kinetic study of CK was conducted with HLMs. A 0.2 mL incubation mixture that consisted of CK (as a substrate), the HLMs (0.5 mg/mL) or CYP isoforms (10 pmol), and 0.1 M sodium phosphate buffer (pH 7.4) was pre-warmed for 5 min at 37°C. The reaction was initiated by the addition of 1 mg/mL triphosphopyridine nucleotide (NADPH). […]
To screen the specific CYP isoform responsible for the CK metabolism, we determined the inhibitory effect of specific inhibitors on the metabolism of CK in the HLMs as described in detail previously. […] The inhibitory effects of the above specific inhibitors on the metabolic clearance rate of CK were evaluated separately to screen the CYP isoforms responsible for the CK metabolism. The relative activity of the CYP isoforms was calculated by dividing the peak area of CK when incubated with the inhibitor by that of CK from the negative controls. […]

CYP3A4 [3] = molecular target: T2, CYP3A4; assay: Inhibition of CYP3A4 (midazolam 1-hydroxylation) by CK in HLMs; type: in vitro ADME; design: tissue Cypex Ltd. (U.K.); host or cells: pooled human liver microsomes
Experimental: as §1
CK (10–100 μM) and a single CYP isoform-specific substrate (with a concentration similar to its corresponding Kmvalue) were used to determine the inhibitory effect of CK on specific CYP isoforms as described in detail previously. Substrates including phenacetin, coumarin, tolbutamide, metoprolol, chlorzoxazone, S-Mephenytoin, and midazolam were used at concentrations of 10, 5, 100, 7.5, 40, 100, and 5 μM, respectively. All incubation conditions were the same as mentioned above. The inhibitory effects on the CYP isoforms were investigated individually by incubating the HLMs in the absence or presence of CK. The incubation solution with the solvent that was used to dissolve CK was regarded as the negative control, and the solutions containing the specific inhibitors mentioned above were considered the positive controls.
The inhibition data obtained from the pilot experiments were used as a guide to generate the appropriate probe substrate and test inhibitor concentrations for the determination of the Ki values for each CYP isoform. The isoform-specific probe substrate concentrations used were 25–200 μM tolbutamide for CYP2C9 and 5–50 μM midazolam for CYP3A4. The CK concentrations used were 10–100 μM.
When Ki>Ki’, the intersection was above the [I] axis in the plot of S/V against [I] and below it in the Dixon plot; the opposite was true if Ki<Ki’. In the special case where Ki = Ki’ (simple non-competitive inhibition), the intersections occurred on the [I] axis in both plots. The asymptotic cases of competitive and uncompetitive inhibition can be generated by inserting the conditions Ki’ to ∞ for competitive inhibition, or Ki to ∞ for uncompetitive inhibition.
As described in detail previously, to determine the major enzymes responsible for the CK metabolism in HLMs, the metabolic clearance rate of the incubation solution without any specific inhibitor for CK was considered as 100%. The effects of the specific inhibitors on the metabolic clearance rate of CK were evaluated with SPSS one-way analysis of variance (SPSS Inc., Chicago, IL, USA). P<0.05 was considered significant in all cases. The apparent kinetic parameters of CK (Km and Vmax) were determined by fitting the Michaelis–Menten equation using the GraphPad Prism Enzyme Kinetic 5 Demo software (GraphPad Co. Ltd, San Diego, CA, USA).

[4] = classified by IC50 according to Kong et al
[5] = CYP3A4 in HLMs, ketoconazole values ref 17

For CC(C)=CCC[C@](C)(OC1O[C@H](CO)[C@@H](O)[C@H](O)[C@H]1O)[C@H]1CC[C@]2(C)[C@@H]1[C@H](O)C[C@@H]1[C@@]3(C)CC[C@H](O)C(C)(C)[C@@H]3CC[C@]12C (stereo partly drawn) [CK, 20-O-β-(D-glucopyranosyl)-20(S)-protopanaxadiol], which “inhibitory effect on the activity of CYP2E1” value (CYP2E1; HLMs, CK 10–100 μM) is on record?
Its value is “minimal; also recorded: negligible”.

And the IC50 (CYP2E1; HLMs, chlorzoxazone 40 μM, CK 10–100 μM)?
The IC50 was greater than 100 µM.

What about the “inhibitor potency class for CYP2E1” value (CYP2E1; [4]) of the same molecule?
Its value is “weak (weak, if IC50≥100 μg/mL or ≥50 μM)”.

What about the CYP3A4 inhibition (CYP3A4 [1]) of the same molecule?
Its CYP3A4 inhibition is “moderate”.

What about the “metabolic clearance rate (MCR) of CK, of that of the control” value (CYP3A4 [2]) of the same molecule?
The value was 74.6±28.1% and 74.6%.

And the “IC50 of CK higher than that of ketoconazole” value (CYP3A4 [3]; [5])?
Its value is 41-123 fold.

What about the “Ki of CK higher than that of ketoconazole” value (CYP3A4 [3]; [5]) of the same molecule?
The value was 761 fold.

And the “type of inhibition of CYP3A4” value (CYP3A4 [3]; HLMs, Dixon and S/V versus [I] plots)?
The value was “noncompetitive”.

What about the IC50 (CYP3A4 [3]; HLMs, midazolam 1-hydroxylation, midazolam 5 μM, CK 10–100 μM) of the same molecule?
Its IC50 is 9.83 µM and 9.82 µM.

And the Ki (CYP3A4 [3]; HLMs, midazolam 5–50 μM, secondary plot of Lineweaver–Burk slopes)?
The Ki was 11.4 µM.

What about the “inhibitor potency class for CYP3A4” value (CYP3A4 [3]; [4]) of the same molecule?
Its value is “potent (potent, if IC50≤ 20 μg/mL or ≤10 μM)”.
